The numbers were not newly measured in US20100209356A1, “CONTRAST AGENTS” (priority 2007, published 2010), which cites them from elsewhere.

For the data set the following is noted: high risk patients; iodixanol compared with a low-osmolar, non-ionic contrast medium.

For `CC(=O)N(CC(O)CN(C(C)=O)c1c(I)c(C(=O)NCC(O)CO)c(I)c(C(=O)NCC(O)CO)c1I)c1c(I)c(C(=O)NCC(O)CO)c(I)c(C(=O)NCC(O)CO)c1I` (stereo not shown) [iodixanol], the “nephropathy induced by contrast medium” value is reported as “less likely to develop”.
